{"source": "patent US11458153B2", "about": "“Drug delivery composition comprising a self-assembled gelator” (The Brigham and Women's Hospital, Inc., priority 2008, dated 2022)", "key": {"[1]": {"test_system": "mesenchymal stem cells (MSCs)", "assay": "MSC viability, trypan blue exclusion", "assay_type": "cell-based, human", "protocol": "Cytocompatibility. The cytocompatibility of prodrugs generated from small modification of known drugs was investigated. […] To test the cyto compatibility of prodrug-based amphiphiles and bolaamphiphiles, and their effect on cell characteristics such as viability, proliferation, adhesion and cell phenotype, a series of experiments was performed with mesenchymal stem cells (MSCs). To gain more insight into the effect of modification, unmodified drug Apn was used as a control. The viability of control cells and cells treated with Apn, Apn-7-COOH and Apn-8-Apn was examined with trypan blue assay. Use of Mesenchymal stem cells is appropriate given that these systems may be used for localized release likely into connective tissues.\nMesenchymal Stem Cell Culture. Primary human mesenchymal stem cells were maintained in expansion media that consisted of 15% Fetal Bovine Serum (selected for its ability to expand MSCs), 1% (v/v) L-Glutamine, 1% (v/v) Penn-Strep, and α-MEM. All experiments were performed using MSCs at passage number 4-6.\nViability, Adhesion and Proliferation Characteristics. The viability of the cells was examined using trypan blue exclusion. […] The media was then aspirated and the cells were detached with 200 μL of cell dissociated solution (similar quantities of floating cells were observed between the groups, typically 5-10 per well). 300 μL of media was added and the total 500 μL of the cell dispersion was collected in an eppendorf tubes. From this 10 μL of cell dispersion was diluted to 1:1 with 4% trypan blue solution and cells were counted in a hemocytometer to determine the number viable (non-blue) and nonviable (blue) cells. A control for this experiment included cells treated with only phosphate buffer saline (PBS) without an amphiphile. Cell adhesion was quantified by measuring the number of adherent cells on tissue culture surfaces in 96 well plates after incubating with amphiphiles for 12 hours. For proliferation studies, 5000 cells were added to each well of a 96 well plate in 200 μL of MSC cell expansion media, and appropriate amphiphiles were then added and incubated at 37° C. and 5% CO2. Proliferation was quantified by manually tabulating the number of cells within the flask at multiple time points (1, 2, 3, 4, 6 and 8 days) with light microscopy at 10×."}, "[2]": {"test_system": "mesenchymal stem cells (MSCs)", "assay": "MSC osteogenic differentiation, alkaline phosphatase staining", "assay_type": "cell-based, human", "conditions": "250 μM, 23 days", "protocol": "Unlike typical fibroblast cell lines used for toxicity screening, cultured mesenchymal stem cells are highly sensitive to the presence of soluble factors and can often loose their capacity for multi-lineage differentiation or differentiate into non-desired lineages depending on the culture conditions. To examine the impact of the acetaminophen amphiphilic prodrugs on multi-lineage differentiation of MSCs, cells were treated with adipogenic and osteogenic induction media in presence of amphiphiles followed by respective colorimetric histological staining.\nOsteogenic Differentiation. MSCs were seeded in the wells of 24 well plates, and were culture in MSC expansion media until they reach 90% confluence (note: in control samples there was no amphiphile present, whereas in experimental samples 250 μM of Apn-based amphiphile was present). Osteogenic differentiation was induced by culturing the cells for 23 days in osteogenic induction media (from Lonza—MSCs Osteogenic Single Quote kit) containing dexamethasone, β-glycerophosphate, L-ascorbic acid-2-phosphate, and α-MEM. The media in both groups was changed every 3 days (note: each time while changing the media, 250 μM of Apn-based amphiphiles were added to maintain constant concentration). Osteogenesis was evaluated by cell membrane associated alkaline phosphatase activity. Alkaline phosphatase activity was examined after 23 days by carefully aspirating the media and washing the cells with PBS. The cells were fixed with 3.7% formaldehyde solution for 15 min at room temperature followed by rinsing with distilled water. 0.06% Red Violet LB salt solution in Tris HCl was added with distilled water containing DMF and Naphthol AS MX-PO4. The plates were incubated for 45 minutes at room temperature and then the wells were rinsed 3 times with distilled water and imaged under with inverted phase contrast microscope."}}, "note": "“Also recorded” adds a separate entry of the source."}
{"smiles": "CC(=O)Nc1ccc(OC(=O)CCCCCCC(=O)O)cc1", "note": "[Apn-7-COOH]", "values": [{"measurement": "viable cells", "setting": "[1]; 250 μM, 48 hours incubation", "result": 87, "unit": "%"}, {"measurement": "viability rates over concentration range", "setting": "[1]; up to 500 μM, 48 hours", "result": "not significantly affected"}, {"measurement": "osteogenic differentiation, alkaline phosphatase (ALP) staining", "setting": "[2]", "result": "robust capacity; also recorded: equally stained for ALP"}]}
